Measurements reported in patent publication US20040116523A1, “Use of c4-c10 acids for preventing gram-negative bacterial infections” (priority 2000, published 2004).

How the values were obtained:
S. dublin 5917 = assay: Splenic colonization of C57Bl/6 mice infected orally with S. dublin 5917; type: in vivo; conditions: 50 mM in drinking water pH 7.2-7.3; 10^7 bacteria per animal orally; distilled water 7.7 ± 0.4
Procedure: (§1) They were infected orally in the following way. The Salmonella strains were cultured in TCS broth for 18 hours at 37° C. with shaking (200 rpm). This culture was then adjusted to […] (in the stationary growth phase, 1 OD600 =1.5 ×10^9 bacteria/ml), and then the number of viable bacteria was controlled by counting on TCS agar.
(§2) On the day of infection (DO), the drinking-water bottles of the mice were replaced with bottles containing 100 ml of drinking water to which the required number of bacteria had been added.
(§3) After infection for 24 hours ([…]), the bottles containing the contaminated drinking water were replaced with bottles containing uncontaminated drinking water.
(§4) Seven days after infection (D+7), the spleens of the mice infected in this way were removed and homogenized separately in 1 ml of physiological saline containing 0.7% of NaCl.
(§5) The number of viable bacteria per spleen was determined by plating out dilutions of the homogenate, onto TCS agar.
The S. dublin strain 5917 (Coynault & Norel, Microb. Pathog., 1999, 26, 299-305) and S. enteritidis strain LAS (Thorns et al., Microb. Pathog., 1996, 20, 235-246) were used to infect C57B1/6 mice orally at the dose of 10^7 bacteria per animal.

[1] = test system: tviB′-lacZ fusion (S. typhi strain Ty266); assay: β-galactosidase activity of the tviB′-lacZ fusion (specificity control); type: cell-based; conditions: 5 mM in favourable LB medium
Procedure: (§6) Each of the strains described above was cultured at 37° C. on agar or in TCS broth. The P-galactosidase activity was determined using 4-methyl-umbelliferyl-p-D-galactopyranoside sold by the company Sigma, according to the technique of Klarsfeld et al. (Mol. Mibrobiol., 1994, 13, 585-597). The results, expressed in P-galactosidase units (fluorescence per hour and per OD600), represent the mean of the values obtained in at least three independent experiments. The standard deviations were less than 10% of the values presented.
The tviB gene has been characterized in S. typhi, and it encodes a GDP-dehydrogenase involved in the biosynthesis of the Vi antigen, which is the capsular polysaccharide of the typhus bacillus (Waxin et al., Res. Microbiol., 1993, 144, 363-371).
The results are reported on FIG. 4, in which it is seen that samples were taken every two hours in order to measure the OD600 (corresponding to the open symbols) and in order to determine the β-galactosidase activity (corresponding to the solid symbols).

[2] = test system: invF′-lacZ fusion (S. typhi strain Ty272); assay: β-galactosidase activity of the invF′-lacZ fusion in favourable LB medium; type: cell-based
Procedure: The favourable LB medium (high osmolarity and concentration of Ca^2+ions) was defined as being the standard LB medium modified so as to have a final NaCl concentration of 300 mM and a final Ca concentration of 5 mM.
as §6
For this, the S. typhi strains Ty267, Ty272 and Ty277, which carry the iagA′-lacZ, invF′-lacZ and sipB′-lacZ fusions, respectively, (see Table I), were cultured in the favourable LB or unfavourable LB medium.
The action of these two compounds on the expression of the iagA′-lacZ, invF′-lacZ and sipB′-lacZ fusions was studied by measuring the β-galactosidase activity expressed by these fusions as a function of the time of culturing (samples removed every two hours).

[3] = test system: Gram-positive or Gram-negative bacteria; conditions: 7.8 mM, in vitro; cited from earlier work
Shigella sonnei = conditions: 1.25 g/l; cited from earlier work
S. typhimurium C52 = assay: Splenic colonization of C57Bl/6 mice infected orally with S. typhimurium C52; type: in vivo
Procedure: The 5-6-week-old female C57Bl/6 mice used in the context of this experiment originated from the IFFA-CREDO breeding centre (LArbresle, France).
as §1, §2, §3, §4, §5
The effect of the composition of the drinking water on the splenic colonization by Salmonella was estimated using the Student's t test.
The S. typhimurium strain C52 was used to infect C57Bl/6 mice orally.
On this figure, the number of viable bacteria is given as the mean (log10) of the values ± the standard deviation. […]

Salmonellae = assay: Bactericidal or bacteriostatic effect on the Salmonellae at neutral pH; type: cell-based, Salmonella

## CCCCCCCC(=O)[O-].[Na+] [sodium caprylate]
S. dublin 5917
  Number of viable bacteria in the spleen (mean in log10): 2.1 ± 0.2 log10
[1]
  effect on the expression of the tviB′-lacZ fusion: no significant effect
[2]; 1 mM in favourable LB medium
  β-galactosidase activity expressed by the invF′-lacZ fusion as % of that in favourable LB medium without the substance: ~20%
[2]; concentration greater than or equal to 2.5 mM, favourable LB medium
  expression of the invF gene (invF′-lacZ fusion): very strongly represses
[3]
  bacteriostatic or bactericidal effect on Gram-positive or Gram-negative bacteria: no bacteriostatic or bactericidal effect
Shigella sonnei
  bactericidal activity in vitro on Shigella sonnei: no bactericidal activity
S. typhimurium C52; 5 mM in drinking water, infectious dose 5 × 10^7 bacteria
  Number of viable bacteria in the spleen (mean log10): 6.9 ± 0.5 log10
S. typhimurium C52; 5 mM in drinking water, infectious dose 10^7 bacteria
  Number of viable bacteria in the spleen (mean log10): 6.8 ± 0.2 log10
S. typhimurium C52; 10 mM in drinking water, infectious dose 5 × 10^7 bacteria
  Number of viable bacteria in the spleen (mean log10): 6.5 ± 0.4 log10
S. typhimurium C52; 10 mM in drinking water, infectious dose 10^7 bacteria
  Number of viable bacteria in the spleen (mean log10): 6.5 ± 1.4 log10
S. typhimurium C52; 50 mM in drinking water from two days before infection, 5 × 10^7 bacteria, seventh day of infection
  factor of decrease of the bacterial load in the spleen: approximately 1 000
S. typhimurium C52; 50 mM in drinking water, infectious dose 10^7 bacteria, distilled water 7.2 ± 0.3
  Number of viable bacteria in the spleen (mean log10): 2.3 ± 0.4 log10
S. typhimurium C52; 5 or 10 mM in the drinking water, whatever the infectious dose
  protective effect (in words): no longer has a significant protective effect
Salmonellae
  bactericidal or bacteriostatic effect on the Salmonellae: none of these compounds has any significant bactericidal or bacteriostatic effect
